Source: publication PMC8715119, “Second-generation non-hematopoietic erythropoietin-derived peptide for neuroprotection” (Redox Biology, 2021)

How the values were obtained:
[1] = system: differentiated neuronal PC12 cells; assay: Cell viability (MTS) under H2O2-induced oxidative stress; assay type: cell-based, rat; conditions: H2O2 for 24 h; reEPO 0.5 IU/ml, ML1 1 ng/ml or ML1 analogs; n = 5; Fig. 4a
Experimental: (§1) PC12 cells (#CRL-1721, ATCC, USA), a rat pheochromocytoma cell line derived from the adrenal medulla (#CRL-1721, ATCC, USA), were seeded on a dish, which was coated by poly L-lysine (0.01%; Sigma Chemical Co., USA), and grown in RPMI 1640 medium (#11875093, Gibco, USA), supplemented with 10% heat-inactivated horse serum (#26050088, Gibco, USA), 5% fetal bovine serum (FBS) (#SH30919.03, Hyclone, USA), and 1% penicillin/streptomycin at 37°C with 5% CO2. For neuronal differentiation, PC12 cells were plated at a density of 1.25x10^3 cell/cm^2 into 96-well plates coated with collagen 1 (#354236, BD Biosciences, USA) and grown in RPMI 1640 medium supplemented with 50 ng/ml nerve growth factor (NGF) (BD Biosciences, USA) and 0.5% FBS for 10 days. The NGF-supplemented media was replaced with fresh media every 3 days during neuronal differentiation.
(§2) Cell viability was evaluated by 3-[(4,5-dimethylthiazol-2-yl)-5,3-carboxymethoxyphenyl]-2-(4-sulfophenyl)-2H tetrazolium, inner salt (MTS) reduction assay (CellTiter 96 Aqueous One Solution Cell Proliferation Assay, Promega, Madison, WI, USA). Briefly, differentiated neuronal-PC12 cells were treated with H2O2 (300 μM) with or without reEPO and peptides for 24 h. The PC12 cells were washed with PBS; 20 ul MTS solution was added to each well with 100 μl PBS, and the cells were incubated for 3 h at 37°C and 5% CO2. The intracellular soluble formazan produced by cellular reduction of the MTS was determined by recording the absorbance at 490 nm using a microplate reader (VersaMax, Molecular Devices, USA). Cell proliferation was also evaluated by the MTS assay. Undifferentiated PC12 cells were seeded into a 96-well plate (5x10^4 cells/well). The next day, the initial cell number was counted; after 48 h, under low FBS concentration (0.5%), with or without reEPO and peptides, cell number was measured by the MTS assay.

[2] = system: differentiated neuronal PC12 cells; assay: Cellular ROS level by H2DCFDA under H2O2; assay type: cell-based, rat; conditions: H2O2 for 6 h; H2DCFDA staining; n = 5; Fig. 4b
Experimental: as §1
(§3) The cellular ROS level was measured using 2′,7′-dichlorodihydrofluorescein diacetate (H2DCFDA) (#D399, Invitrogen, USA). The cells were incubated with 5 μM H2DCFDA in PBS for 30 min, washed with PBS, and then resuspended in the medium for 2 h. After treatment of H2O2 without or with reEPO, or peptide, we monitored the oxidative stress by measuring the fluorescence intensities of H2DCFDA by using excitation and emission wavelengths of 485 nm and 535 nm, respectively.

[3] = system: undifferentiated PC12 cells; assay: Cell proliferation (MTS) under low serum; assay type: cell-based, rat; conditions: 0.5% fetal bovine serum, 48 h, reEPO 10 IU/ml, peptides 10 ng/ml, n = 5, Fig. 4c
Experimental: PC12 cells (#CRL-1721, ATCC, USA), a rat pheochromocytoma cell line derived from the adrenal medulla (#CRL-1721, ATCC, USA), were seeded on a dish, which was coated by poly L-lysine (0.01%; Sigma Chemical Co., USA), and grown in RPMI 1640 medium (#11875093, Gibco, USA), supplemented with 10% heat-inactivated horse serum (#26050088, Gibco, USA), 5% fetal bovine serum (FBS) (#SH30919.03, Hyclone, USA), and 1% penicillin/streptomycin at 37°C with 5% CO2. […]
as §2, with “Briefly, differentiated neuronal-PC12 cells were treated with H2O2 (300 μM) with or without reEPO and peptides for 24 h. The PC12 cells were washed with PBS; 20 ul MTS solution was added to each well with 100 μl PBS, and the cells were incubated for 3 h at 37°C and 5% CO2.” left out, “Undifferentiated PC12 cells were seeded into a 96-well plate (5x10^4 cells/well).” left out

JAK2 = assay: Time-series immunoblot of phosphorylated JAK2; assay type: cell-based, rat; conditions: undifferentiated PC12 cells; 1 nM; up to 90 min; normalized by JAK2; n = 3
Experimental: (§4) PC12 or HT-22 cells were lysed in 100 mM Tris-Cl (pH 6.8) with 4% SDS. The lysates were loaded onto sodium dodecyl sulfate-polyacrylamide gel electrophoresis (SDS-PAGE) (8–10%), and the proteins were transferred onto the nitrocellulose membrane. The membrane was blocked with 0.1% TBST and 5% non-fat dry milk at 25°C for 30 min. Primary antibodies were diluted in 0.1% TBST and 3% bovine serum albumin (BSA). The primary antibodies included anti-pJAK2 (#3776, Cell Signaling Technology, USA), anti-JAK2 (#3230, Cell Signaling Technology, USA), anti-pSTAT5 (#9351, Cell Signaling Technology, USA), anti-STAT5 ([…], Cell Signaling Technology, USA), anti-pAKT (#9271, Cell Signaling Technology, USA), anti-AKT (#9272, Cell Signaling Technology, USA), anti-pERK (#9101, Cell Signaling Technology, USA) anti-ERK (#9102, Cell Signaling Technology, USA), anti-EPOR (#sc-365662, Santa Cruz Biotechnology, USA), anti-β-Actin (Santa Cruz Biotechnology, USA), anti-Bax (Santa Cruz Biotechnology, USA), anti-cleaved Casp3 (Cell Signaling Technology, USA), and anti-cleaved Parp1 (Cell Signaling Technology, USA).

ERK = assay: Time-series immunoblot of phosphorylated ERK; assay type: cell-based, rat; conditions: PC12 cells; 1 nM; peak at 15 min, below basal at 30 min, then recovery; n = 3
Experimental: as §4

HT-22 cells [4] = assay: TUNEL assay after hypoxia and re-oxygenation; assay type: cell-based, mouse; conditions: hypoxia 18 h, re-oxygenation 3 h; reEPO 0.5 IU/ml, ML1-h3 1 ng/ml; n = 5
Experimental: (§5) HT-22 cells (kindly provided by Prof. Gil-Saeng Jeong in Keimyung University), an immortalized mouse hippocampal cell line, were cultured at 37°C and 5% CO2 in Dulbecco's modified eagle medium (DMEM, Invitrogen, USA) supplemented with 10% FBS and 1% penicillin/streptomycin at 37°C and 5% CO2.
(§6) The HT-22 cells were seeded onto 96-well or 6-well plates. The next day, HT-22 cells were placed inside a sealed air-tight container consisting of an anaeropack (Mitsubishi Gas Company, Tokyo, Japan), which can induce a hypoxic atmosphere by absorbing oxygen and generating carbon dioxide. The cells were maintained in the hypoxic condition at 37°C for 18 h and re-oxygenated for 3 h at 37°C and 5% CO2. Subsequently, the cells were treated with reEPO or the peptides for 19 h before viability analysis.
We fixed the cells with 4% paraformaldehyde in PBS on a slide at 25°C, washed them with PBS, and then treated them with 3% H2O2 in methanol for 10 min. After washing with PBS, we treated the cells with 0.1% sodium citrate in 0.1% Triton X-100 on sample slides for 2 min on ice and washed again with PBS. Subsequently, we treated the cells with the TUNEL reaction mixture for 60 min at 37°C in the dark. After washing thrice with PBS, 50 μl of TUNEL peroxidase (POD) was added to the slides for 30 min at 37°C in the dark. […]

Bax = assay: Immunoblot of Bax after hypoxia and re-oxygenation; assay type: cell-based, mouse; conditions: HT-22 cells; reEPO 0.5 IU/ml, ML1-h3 1 ng/ml; normalized by β-Actin; n = 6
Experimental: as §4
The HT-22 cells were seeded onto 96-well or 6-well plates. The next day, HT-22 cells were placed inside a sealed air-tight container consisting of an anaeropack (Mitsubishi Gas Company, Tokyo, Japan), which can induce a hypoxic atmosphere by absorbing oxygen and generating carbon dioxide. […]

HT-22 cells [5] = assay: ROS level by H2DCFDA after hypoxia and re-oxygenation; assay type: cell-based, mouse; conditions: reEPO 0.5 IU/ml, ML1-h3 1 ng/ml, n = 12
Experimental: as §5, §3, §6

## reEPO: Recombinant human EPO (Epoetin-α, CJ HealthCare Corporation)
[1]
  Cell death under H2O2-induced oxidative stress (cell viability): significantly suppressed the cell death
[2]
  Level of reactive oxygen species (ROS) induced by H2O2: decreased the levels of reactive oxygen species (ROS)
[3]
  Cell proliferation (cell number): significantly increased the proliferation
JAK2
  Level of phosphorylated JAK2 (pJAK2) over time: upregulated the level of phosphorylated JAK2 in ^1007/1008Tyr (pJAK2), an active form of JAK2 at 30–60 min; pJAK2 returned to the basal level at 90 min
ERK
  Level of phosphorylated ERK (pERK) over time: acutely increased the level of phosphorylated ERK
HT-22 cells [4]
  TUNEL-positive cells under H/R: dramatically decreased the TUNEL-positive cells
Bax
  Level of Bax under H/R: efficiently reduced the levels of Bax
HT-22 cells [5]
  ROS level induced by H/R: decreased ROS level induced by H/R
